Data: patent US20100003346A1, “COMBINATION METHODS OF TREATING CANCER” (priority 2006, published 2010)
Like-named read-outs stand apart in the source and are kept apart here.

How the values were obtained:
[1] = mouse, in vivo
Method: (§1) 2×10^4 BCL1 cells, freshly extracted from BCL1 leukemia bearing BALB/c mice, were inoculated intraperitoneally (i.p.) into mice in 100 μl PBS to produce tumor growth. Methyl jasmonate at 60 mg/kg was administered to animals 5 times a week, daily, for 4 weeks, starting one day after cell inoculation. […] MJ was dissolved in a lipid formulation, Lipofundin (B. Braun Melsungen, Melsungen, Germany). The adriamycin was given to mice twice, on days 7 and 14, at 4 mg/kg, i.p. Control mice were treated with the vehicle alone. The survival of mice was monitored daily.

[2] = test system: CT26 murine colon carcinoma; assay: Cytotoxicity assay (MTS, CellTiter 96) in CT26 cells; format: cell-based
Method: (§2) CT26 is a murine colon carcinoma. DA-3 is a murine mammary adenocarcinoma. TRAMP C1 is a murine prostate adenocarcinoma. MCF7 is a human breast adenocarcinoma. M IA PaCa-2 is a human pancreatic carcinoma. D122 is a murine lung carcinoma. BCL1 is a murine B cell leukemia. All cell lines were purchased from ATCC (Rockville, Md., USA), except for DA3 and D122 which were kindly provided by Prof. Y. Keisari (Tel-Aviv University, Israel).
The cells were maintained in a humidified atmosphere, at 37° C. with 5% CO2. CT26 and DA-3 cells were maintained in Dulbecco's modified Eagle's medium (Biological Industries, Beit-Haemek, Israel), supplemented with 10% FCS, 2 mM L-glutamine, 100 U ml^−1 penicillin, 100 μg ml^−1 streptomycin, 1 mM sodium pyruvate and 1:100 dilution of nonessential amino acids (all purchased from Biological Industries, Israel). […]
Inhibition of cell proliferation was determined by the CellTiter 96 Aqueous Non-Radioactive Cell Proliferation Assay (Promega, Madison, Wis., USA). […] Soluble MTS formazan product at wavelength 490 nm was measured with the CERES 900 HDi ELISA reader (Bio-Tek Instruments, Highland Park, Vt., USA). […] Cytotoxicity (%) was calculated in the following way: [(absorbance of control cells−absorbance of drug-treated cells)/absorbance of control cells]×100.

[3] = test system: MCF7 human breast adenocarcinoma; assay: Cytotoxicity assay (MTS, CellTiter 96) in MCF7 cells; format: cell-based
From the text: as §2
(§3) MCF7, MIA PaCa-2 and BCL1 cells were maintained in RPMI-1640 medium (Biological Industries, Israel) supplemented with 10% FCS, 2 mM L-glutamine, 100 U ml^−1 penicillin and 100 μg ml^−1 streptomycin.
(§4) All cells (except for BCL1) were plated into 96-well microtiter plates (Corning) at a density of 2*10^3 cells per well and were allowed to adhere prior to treatment. BCL1 cells were seeded at a density of 20*10^4 cells per well. The cells were exposed to MJ, cytotoxic drugs, 2DG or their combinations at different concentrations for 24 hours. Cytotoxic drugs and 2DG were added 1 h prior to MJ addition.
(§5) Inhibition of cell proliferation was determined by the CellTiter 96 Aqueous Non-Radioactive Cell Proliferation Assay (Promega, Madison, Wis., USA). Upon completion of a given experiment, 20 μl of a mixture (20:1) of MTS (a tetrazolium compound, at a final concentration of 333 μg/ml)+phenazine methosulfate (at a final concentration of 25 μM) were added to each well of the 96-well plate for 1 h at 37° C. This allowed for the development of the reaction in which dehydrogenases reduce the MTS in metabolically active cells. […] Soluble MTS formazan product at wavelength 490 nm was measured with the CERES 900 HDi ELISA reader (Bio-Tek Instruments, Highland Park, Vt., USA). Optical density is directly proportional to the number of living cells in culture. Cytotoxicity (%) was calculated in the following way: [(absorbance of control cells−absorbance of drug-treated cells)/absorbance of control cells]×100.

[4] = test system: D122 murine lung carcinoma; assay: Cytotoxicity assay (MTS, CellTiter 96) in D122 cells; conditions: for IC50: Mus musculus
Method: as §2, §4, §5

[5] = test system: BCL1 murine B cell leukemia; assay: Cytotoxicity assay (MTS, CellTiter 96) in freshly extracted BCL1 cells; conditions: for IC50: Mus musculus; for Interaction of MJ with drug (cytotoxicity vs expected additivity): BCL1; for Cooperative effect of combination of MJ and chemotherapeutic drug: BCL1 cells, drug combined with fixed concentration of MJ (0.1 mM), cooperative = pV<0.05 vs expected additivity
From the text: as §2, §3
BCL1 cells, which are unable to grow continuously in culture, were maintained in BALB/c mice. Blood was taken from the tail vein of BCL1-bearing mice on day 23-28 post inoculation, and depleted of red blood cells (RBC) using RBC lysis buffer (Sigma-Aldrich). The purified leukemic cells were used for in vitro and in vivo experiments.
as §4, §5

[6] = test system: MIA PaCa-2 human pancreatic carcinoma; assay: Cytotoxicity assay (MTS, CellTiter 96) in MIA PaCa-2 cells; conditions: for IC50: Homo sapiens; for Cooperative effect of combination of MJ and chemotherapeutic drug: MIA PaCA-2 cells, drug combined with fixed concentration of MJ, cooperative = pV<0.05 vs expected additivity
From the text: as §2, §3, §4, §5

[7] = test system: DA-3 murine mammary adenocarcinoma; assay: Cytotoxicity assay (MTS, CellTiter 96) in DA-3 cells; conditions: for IC50: Mus musculus
Method: as §2
The cells were maintained in a humidified atmosphere, at 37° C. with 5% CO2. CT26 and DA-3 cells were maintained in Dulbecco's modified Eagle's medium (Biological Industries, Beit-Haemek, Israel), supplemented with 10% FCS, 2 mM L-glutamine, 100 U ml^−1 penicillin, 100 μg ml^−1 streptomycin, 1 mM sodium pyruvate and 1:100 dilution of nonessential amino acids (all purchased from Biological Industries, Israel).
as §4, §5

[8] = test system: TRAMP C1 murine prostate adenocarcinoma; assay: Cytotoxicity assay (MTS, CellTiter 96) in TRAMP C1 cells; format: cell-based; conditions: for IC50: Mus musculus; for IC50 / Cooperative effect of combination of MJ and chemotherapeutic drug: TRAMP C1 cells; for Cooperative effect of combination of MJ and chemotherapeutic drug: drug combined with fixed concentration of MJ, cooperative = pV<0.05 vs expected additivity
Method: as §2
TRAMP C1 cells were grown in Dulbecco's modified Eagle's medium supplemented with 10% FCS, 2 mM L-glutamine, 100 U ml^−1 penicillin, 100 μg ml^−1 streptomycin, 1 mM sodium pyruvate, 1:100 dilution of nonessential amino acids, 5 μg/ml bovine insulin and 10 nM dehydroisoandrosterone.
as §4, §5

[9] = test system: BCL1 leukemia; assay: Survival of BCL1 leukemia-bearing mice; format: in vivo, BALB/c mice; conditions: MJ 60 mg/kg i.v. or adriamycin 4 mg/kg i.p. alone
Method: Balb/c male mice (7-8 weeks old) were obtained from the breeding colony of Tel-Aviv University, Israel. Animal care and experimentation were carried out in accordance with Tel-Aviv University guidelines and approved by the institutional animal use and care committee. Mice were kept in cages under standard food and housing conditions during the experiments.
as §1
Statistical significance in in vitro experiments was assessed using the two-tailed Student's t-test. P<0.05 was considered statistically significant. The survival curves (Kaplan-Meier test) and statistical analysis (Mantel-Cox test) were carried out using Statistical software.
Since adriamycin is used for treatment of leukemia, it was chosen for an experiment assessing a combination with MJ in vivo. […]

[10] = drug at other concentrations + 0.1 mM MJ

CC/C=C\CC1C(=O)CCC1CC(=O)OC (stereo not shown) [MJ, methyl 3-oxo-2-(2-pentenyl)cyclopentaneacetic acid]
Tolerability of MJ dose [1]: well tolerated
IC50 ([2]; Mus musculus, CT26 cells, 24 h exposure): 2590 ± 120 µM
IC50 ([3]; Homo sapiens, MCF7 cells, 24 h exposure): 1490 ± 60 µM
IC50 ([4]; 24 h, read-out: IC50 of MJ): 1220 ± 60 µM
IC50 ([5]; BCL1, 24 h, read-out: IC50 of MJ): 560 ± 90 µM
IC50 ([5]; BCL1, read-out: IC50 of MJ): 560 µM
IC50 ([6]; MIA PaCa-2, 24 h, read-out: IC50 of MJ): 1460 ± 130 µM
IC50 ([7]; DA-3, 24 h, read-out: IC50 of MJ): 1910 ± 80 µM
IC50 ([8]; 24 h exposure, read-out: IC50 of MJ): 2940 ± 130 µM

N.N.[Cl][Pt][Cl] [Cisplatin, cis Diammineplatinum (II) dichloride]
Cooperative effect of combination of MJ and chemotherapeutic drug [6]: +
Cooperative effect of combination of MJ and chemotherapeutic drug [8]: +

CC(=O)O[C@H]1C(=O)[C@@]2(C)[C@H]([C@H](OC(=O)c3ccccc3)[C@]3(O)C[C@H](OC(=O)[C@H](O)[C@@H](NC(=O)c4ccccc4)c4ccccc4)C(C)=C1C3(C)C)[C@]1(OC(C)=O)CO[C@@H]1C[C@@H]2O [Taxol]
Interaction of MJ with drug (cytotoxicity vs expected additivity) ([3]; MCF7, taxol 2.5 μg/ml + 1 mM MJ): enhances the cytotoxic capability
Interaction of MJ with drug (cytotoxicity vs expected additivity) ([3]; MCF7, taxol at other concentrations + 1 mM MJ): additive
Cooperative effect of combination of MJ and chemotherapeutic drug ([3]; MCF7 cells, drug combined with fixed concentration of MJ, cooperative = pV<0.05 vs expected additivity): +
Cooperative effect of combination of MJ and chemotherapeutic drug ([4]; D122 cells, drug combined with fixed concentration of MJ, cooperative = pV<0.05 vs expected additivity): +
IC50 ([4]; read-out: IC50 of taxol alone): 8.2 µg/mL
IC50 ([4]; read-out: IC50 of taxol in the presence of MJ): < 1 µg/mL
Interaction of MJ with drug (cytotoxicity vs expected additivity) ([5]; drug + 0.1 mM MJ): No cooperative effect
Cooperative effect of combination of MJ and chemotherapeutic drug ([7]; DA-3 cells, drug combined with fixed concentration of MJ, cooperative = pV<0.05 vs expected additivity): +
IC50 ([7]; DA-3, read-out: IC50 of taxol alone): 9 µg/mL
IC50 ([7]; DA-3, read-out: IC50 of taxol in combination with MJ): 2.5 µg/mL
IC50 ([8]; drug alone, read-out: IC 50 of taxol): 38 µg/mL
IC50 ([8]; with 1 mM MJ, read-out: IC 50 of taxol by combined treatment with MJ): 2 µg/mL
Combined effect of taxol with MJ vs expected additivity ([8]; TRAMP C1, taxol at all concentrations tested (1-50 μg/ml) + 1 mM MJ): significantly higher than the expected additivity
Cooperative effect of combination of MJ and chemotherapeutic drug [8]: +

O=NN(CCCl)C(=O)NCCCl [BCNU, 1,3-bis{2-Chloroethyl}-1-nitroso-urea]
Interaction of MJ with drug (cytotoxicity vs expected additivity) ([5]; BCNU 2.5 and 5 μg/ml + 0.1 mM MJ, pV<0.05): cooperation
Interaction of MJ with drug (cytotoxicity vs expected additivity) [5, 10]: additive effect
Cooperative effect of combination of MJ and chemotherapeutic drug [5]: +
IC50 ([6]; MIA PaCa-2, read-out: IC50 of BCNU by itself): > 25 µg/mL
IC50 ([6]; MIA PaCa-2, read-out: IC50 of BCNU in the combination with MJ): < 1 µg/mL
Cooperative effect of combination of MJ and chemotherapeutic drug [6]: +
Interaction of MJ with drug (cytotoxicity vs expected additivity) ([6]; MIA PaCa-2, BCNU at all concentrations tested (1-25 μg/ml) + 1 mM MJ): strong cooperative effects

O=CC[C@@H](O)[C@H](O)[C@H](O)CO [2DG, 2-Deoxy-D-glucose]
Effect of 2DG on cytotoxicity of MJ ([2]; CT26, 2DG 0.5 mM, each MJ concentration, pV<0.05): significantly enhanced
Effect of 2DG on cytotoxicity of MJ ([3]; MCF7, 2DG 0.5 mM, other MJ concentrations): additive
Effect of 2DG on cytotoxicity of MJ ([4]; D122, 2DG 0.5 mM, each MJ concentration, pV<0.05): significantly enhanced
Effect of 2DG on cytotoxicity of MJ ([7]; DA-3, 2DG 0.5 mM with MJ): No cooperative effect

COc1cccc2c1C(=O)c1c(O)c3c(c(O)c1C2=O)C[C@@](O)(C(=O)CO)C[C@@H]3O[C@H]1C[C@H](N)[C@H](O)[C@H](C)O1 [Adriamycin]
Survival of BCL1 leukemia-bearing mice, single agent [9]: did not induce increased survival
Interaction of MJ with drug (cytotoxicity vs expected additivity) ([5]; adriamycin 10 and 25 ng/ml + 0.1 mM MJ): cooperation
Interaction of MJ with drug (cytotoxicity vs expected additivity) [5, 10]: additive effect
Cooperative effect of combination of MJ and chemotherapeutic drug [5]: +
